Results taken from patent US4423221A, “7-Carboethoxy-morphinan-6-one compounds” (SISA Pharmaceutical Laboratories, Inc., priority 1982, dated 1983).

The compounds below were run on mice (assay: Acetic acid mouse writhing test (analgesic effects)). Details: Mus musculus, sc, subcutaneous, 0.5% acetic acid i.p. 15 min post drug, writhes counted over 20 min, read-out: ED50 (dose required to reduce the number of writhes by 50%).
Format: in vivo, male CD-1 mice
Method: (A) Analgesic effects upon mice (acetic acid writhing test).
Acetic Acid Mouse Writhing Test
Analgesic effects of the test compounds were determined in mice by use of the acetic acid writhing test described by B. A. Whittle, Brit. J. Pharmacol., 22:246 (1964). In this test, at least 3 groups of 5 male CD-1 mice each were given subcutaneous doses of the test drug dissolved in distilled water. In all cases, 0.4 milliliters of a 0.5% V/V acetic acid in distilled water solution was administered intraperitoneally 15 minutes post drug. The number of writhes in a 20 minute interval beginning 5 minutes after the acetic acid injection were determined and compared with the number of writhes in a control group which had received only acetic acid.
Percent inhibition of writhing was calculated as: [formula]
The ED50 dose, i.e., the dose required to reduce the number of writhes by 50%, was determined graphically from a plot of % inhibition as a probit verus log dose. Confidence limits of 95% were calculated on the basis of those results falling in the range 16-84% inhibition. See Lichtfield, J. T. and Wilcoxon, F., J. Pharmacol. Exp. Ther., 96, 99-113 (1949).
`CCOC(=O)C1C[C@H]2[C@H]3Cc4ccc(OC)cc4[C@@]2(CCN3CC2CC2)CC1=O` (stereo partly drawn) [TR-5299, 7-carboethoxy-17-cyclopropylmethyl-3-methoxy-morphinan-6-one] was tested, and the ED50 was over 10 mg/kg. Compound `CCOC(=O)C1C[C@H]2[C@H]3Cc4ccc(O)cc4[C@@]2(CCN3CC2CCC2)CC1=O` (stereo partly drawn) [TR-5307, 7-carboethoxy-17-cyclobutylmethyl-3-hydroxy-morphinan-6-one] has an ED50 of 1.15 mg/kg. For `CCOC(=O)C1C[C@H]2[C@H]3Cc4ccc(O)cc4[C@@]2(CCN3CC2CC2)CC1=O` (stereo partly drawn) [TR-5308, 7-carboethoxy-17-cyclopropylmethyl-3-hydroxy-morphinan-6-one], the ED50 was 4.9 mg/kg. `CCOC(=O)C1C[C@H]2[C@H]3Cc4ccc(OC)cc4[C@@]2(CCN3C)CC1=O` (stereo partly drawn) [TR-5318, 7-carboethoxy-3-methoxy-17-methylmorphinan-6-one] gave an ED50 of 4.6 mg/kg. `CCOC(=O)C1C[C@H]2[C@H]3Cc4ccc(O)cc4[C@@]2(CCN3C)CC1=O` (stereo partly drawn) [TR-5320, 7-carboethoxy-3-hydroxy-17-methylmorphinan-6-one] showed an ED50 of 0.72 mg/kg. With `CCOC(=O)C1C[C@@H]2[C@H]3Cc4ccc(OC)cc4[C@@]2(CCN3C)CC1=O` (stereo partly drawn) [TR-5336, 7-carboethoxy-3-methoxy-17-methyl-14α-morphinan-6-one] the ED50 was over 10 mg/kg. Work on `CCOC(=O)C1C[C@@H]2[C@H]3Cc4ccc(O)cc4[C@@]2(CCN3C)CC1=O` (stereo partly drawn) [TR-5338, 7-carboethoxy-3-hydroxy-17-methyl-14α-morphinan-6-one] yielded an ED50 of 0.6 mg/kg. For `CCOC(=O)C1C[C@@H]2[C@H]3Cc4ccc(O)cc4[C@@]2(CCN3CC2CC2)CC1=O` (stereo partly drawn) [TR-5339, 7-carboethoxy-17-cyclopropylmethyl-3-hydroxy-14α-morphinan-6-one], the ED50 was 3.7 mg/kg.

Same assay, conditions: subcutaneous, 0.5% acetic acid i.p. 15 min post drug, writhes counted over 20 min
`CCOC(=O)C1CC2C3Cc4ccc(OC)cc4C2(CCN3CC2CCC2)CC1=O` (stereo not drawn) [TR-5300, 7-carboethoxy-17-cyclobutylmethyl-3-methoxy-morphinan-6-one] was tested, and the “ED50 (dose required to reduce the number of writhes by 50%)” value was “IA 10.0”. For `CCOC(=O)C1C[C@@H]2[C@H]3Cc4ccc(OC)cc4[C@@]2(CCN3CC2CC2)CC1=O` (stereo partly drawn) [TR-5337, 7-carboethoxy-17-cyclopropylmethyl-3-methoxy-14α-morphinan-6-one], the “ED50 (dose required to reduce the number of writhes by 50%)” value was “IA 10.0”.

The compounds below were run on rats (assay: Narcotic antagonist activity, modified rat tail flick test (against ED80 dose of morphine)). Details: ip, test drug intraperitoneally, ED80 dose of morphine s.c. 10 min later, retest 20 min after morphine, read-out: AD50 (dose required to inhibit the effect of morphine by 50%).
Format: in vivo, male albino Wistar rats
Method: (B) Narcotic antagonist activity in rats (modified rat tail flick test).
Evaluation of Narcotic Antagonist Activity
The narcotic antagonist effect of the test compound was determined by a modification of the rat tail flick procedure of Harris and Pierson (J. Pharmacol. Exp. Ther., 143:141 [1964]).
Male albino Wistar rats (100-120 g) were used for this study. A rat's tail is so placed so as to cover a photocell. Heat is applied by a lamp in a reflector with a timer being connected to the lamp and photocell so that the timer goes on when the light is turned on and is turned off when the photocell is uncovered. A rheostat, incorporated into a heating lamp, is used to adjust the intensity of the light falling on the tail of the rat such that the rat's control reaction time is from 2 to 4 seconds. Animals with a control reaction time outside this range are rejected. The rheostat adjustment is made only if a significant proportion (1 out of every 10 rats) of the reaction times are outside the range of 2 to 4 seconds. Groups of 5 rats were used, and 2 control times were determined at 60 and 30 minutes prior to […] injection of the drug.
At least 30 minutes after the last control run the test drug was given intraperitoneally. This was followed 10 minutes later by an ED80 dose of morphine subcutaneously. The animals were retested at 20 minutes after the morphine injection. Control animals were given vehicle and morphine only. The data were calculated as follows: [formula]
The data were plotted on log-probit paper and AD50 values, i.e., the dose required to inhibit the effect of morphine by 50% within 95% confidence limits, were determined by the method of Lichtfield and Wilcoxon.
In the case of `CCOC(=O)C1C[C@H]2[C@H]3Cc4ccc(OC)cc4[C@@]2(CCN3CC2CC2)CC1=O` (stereo partly drawn) [TR-5299, 7-carboethoxy-17-cyclopropylmethyl-3-methoxy-morphinan-6-one], the ED50 was 13 mg/kg. `CCOC(=O)C1CC2C3Cc4ccc(OC)cc4C2(CCN3CC2CCC2)CC1=O` (stereo not drawn) [TR-5300, 7-carboethoxy-17-cyclobutylmethyl-3-methoxy-morphinan-6-one] showed an ED50 of 13 mg/kg. `CCOC(=O)C1C[C@H]2[C@H]3Cc4ccc(O)cc4[C@@]2(CCN3CC2CCC2)CC1=O` (stereo partly drawn) [TR-5307, 7-carboethoxy-17-cyclobutylmethyl-3-hydroxy-morphinan-6-one] gave an ED50 of over 10 mg/kg. In the case of `CCOC(=O)C1C[C@H]2[C@H]3Cc4ccc(O)cc4[C@@]2(CCN3CC2CC2)CC1=O` (stereo partly drawn) [TR-5308, 7-carboethoxy-17-cyclopropylmethyl-3-hydroxy-morphinan-6-one], the ED50 was 3.12 mg/kg. `CCOC(=O)C1C[C@H]2[C@H]3Cc4ccc(O)cc4[C@@]2(CCN3C)CC1=O` (stereo partly drawn) [TR-5320, 7-carboethoxy-3-hydroxy-17-methylmorphinan-6-one] was tested, and the ED50 was 3.6 mg/kg. In the case of `CCOC(=O)C1C[C@@H]2[C@H]3Cc4ccc(OC)cc4[C@@]2(CCN3CC2CC2)CC1=O` (stereo partly drawn) [TR-5337, 7-carboethoxy-17-cyclopropylmethyl-3-methoxy-14α-morphinan-6-one], the ED50 was over 10 mg/kg. With `CCOC(=O)C1C[C@@H]2[C@H]3Cc4ccc(O)cc4[C@@]2(CCN3C)CC1=O` (stereo partly drawn) [TR-5338, 7-carboethoxy-3-hydroxy-17-methyl-14α-morphinan-6-one] the ED50 was 0.7 mg/kg. For `CCOC(=O)C1C[C@@H]2[C@H]3Cc4ccc(O)cc4[C@@]2(CCN3CC2CC2)CC1=O` (stereo partly drawn) [TR-5339, 7-carboethoxy-17-cyclopropylmethyl-3-hydroxy-14α-morphinan-6-one], the ED50 was 2.54 mg/kg.
